The test system of data set [1] is human bladder carcinoma 5637 cells. In words: 5637 cell viability (PrestoBlue). The class given is cell-based. Conditions: 48 h. As to the method:
FIG. 12. Effect of peptides 4 and 5 on human bladder carcinoma 5637 cell viability. 5637 cells were seeded in a 96-well microtiterplate (20,000 cell/well) and cultured for 16 h at 37° C., 5% CO2. The day after the indicated doses of peptide 4 and 5 were added to the cells and left to incubate for additionally 48 h at 37° C., 5% CO2. Cell viability was assessed using the PrestoBlue* cell viability reagent (ThermoFisher) according to the manufacturer's instructions. Viability of the treated cells was normalized to that of untreated cells and is reported as a percentage (mean±SE of triplicate wells).

Data set [2] deals with T1, αvβ6 on human bladder cancer 5637 cells (Homo sapiens, UniProt P06756+P18564).
T1 construct: cell-surface expressed αvβ6 on human bladder cancer 5637 cells; host or cells: human bladder cancer 5637 cells
In words: Effect of peptides on binding of anti-αvβ6 mAb 10D5 to 5637 cells (FACS). The data set is classed as cell-based. Conditions: competition with mAb 10D5.

Data set [3] is described as follows: Peptide stability in mouse liver microsomal preparations (RP-HPLC). The note with it: C57BL/6, mouse, liver microsomes; 37° C.; read-out: t1/2 in mouse liver microsomes (converted). The data set is classed as in vitro ADME. The method, then:
FIG. 14. Stability of peptides 4 and 5 in murine liver microsomes as determined by RP-HPLC. a) RP-HPLC of 4 and 5 after incubation at 37° C. in murine liver microsomes. Peak 1 corresponds to 4 and 5. The peptides were added to murine liver microsomes (454 - μg/ml, final concentration) and incubated for the indicated time, diluted with an equal volume of 90% acetonitrile containing 0.1% TFA and analyzed onto a LiChrospher C18 column (16 ag). No peptide indicates liver microsome aliquot without the peptide. b) Quantification of Peak 1 area (left panel) and height (right panel) of the indicated peptides. The corresponding half-life is also shown.
The stability of compound 4 and 5 in mouse liver microsomal preparations was assessed by HPLC analysis. To this aim microsomes were prepared as follows: 11 g of mouse liver tissue (C57BL/6 mice) was homogenized in cold PBS supplemented with 0.25 M sucrose (3 ml/g of tissue) using a Potter-Elvehjem homogenizer (10 strokes), followed by additional homogenization using a rotor-stator homogenizer (40 sec). The homogenate was filtered through 70 pm cell-strainers, centrifuged three times to remove insoluble materials (500 x g, 5 min; 3000 x g, 30 min; 110000 x g, 90 min, 4° C.). […] Protein concentration was measured by measuring the absorbance at 280 nm with a NanoDrop spectrophotometer (Thermo Scientific). […]

The next data set addresses T2, αvβ6 (Homo sapiens, UniProt P06756+P18564).
T2 construct: recombinant human αvβ6 extracellular domain (R&D Systems); purchased R&D Systems (Minneapolis, Minn.)
The data set can be described thus: Competitive integrin binding assay (isoDGR/STV-HRP probe), αvβ6-coated plates. Conditions: Table 3a and text; ± standard error of the mean; read-out: Ki αvβ6. As to the method: (§1) Peptide binding was measured by a competitive binding assay using as integrin probe a complex made by a N-terminal acetylated isoDGR peptide biotinylated at the E-amino group of the lysine, acetyl-Ciso[…]-bio (SEQ ID No. 29), and a streptavidin-peroxidase conjugate (called isoDGR/STV-HRP)[43].
(§2) Each mixture was then added to integrin-coated wells and left to incubate for 2 h at room temperature. After washing with 25 mM Tris-HCl, pH 7.4, containing 150 mM sodium chloride, 1 mM magnesium chloride, 1 mM manganese chloride, each well was filled with a chromogenic solution (o-phenylenediamine dihydrochloride) and left to incubate for 30 min at room temperature. The chromogenic reaction was stopped by adding 1 N sulfuric acid. The absorbance at 490 nm was then measured using a microtiterplate reader. Ki values were calculated by non-linear regression analysis of competitive binding data using the “One site - Fit Ki” equation of the GraphPad Prism Software using the Kd values of the probe indicated above.

Data set [4] concerns the target T3, αvβ6 on human keratinocytes (HaCat) (Homo sapiens, UniProt P06756+P18564).
T3 construct: endogenous in cells; host or cells: human skin keratinocytes HaCaT
The data set can be described thus: Effect of peptides on binding of anti-αvβ6 mAb 10D5 to HaCaT cells (FACS). The class given is cell-based. The note with it: competition with mAb 10D5.

For another data set, the target named is αvβ8 (Homo sapiens, UniProt P06756+P26012). The data set can be described thus: Competitive integrin binding assay (isoDGR/STV-HRP probe), αvβ8-coated plates. The note with it: Table 3a and text; ± standard error of the mean; read-out: Ki αvβ8. As to the method:
as §1, §2

The target of a further data set is T4, αvβ5 (Homo sapiens, UniProt P06756+P18084).
T4 construct: purchased Immunological Sciences (Rome, Italy)
The data set can be described thus: Competitive integrin binding assay (isoDGR/STV-HRP probe), αvβ5-coated plates. Conditions: Table 3a; ± standard error of the mean. The method, then:
as §1, §2

A further data set has as its target T5, α5β1 (Homo sapiens, UniProt P05556+P08648).
T5 construct: purchased Immunological Sciences (Rome, Italy)
The data set can be described thus: Competitive integrin binding assay (isoDGR/STV-HRP probe), α5β1-coated plates. The method, then: as §1, §2

Where a SMILES comes first, the peptide text is derived from it.

As usually defined, the Ki is a dissociation constant, usually derived from enzyme kinetics or from competition with a known ligand. In the case of `CC[C@H](C)[C@H](NC(=O)[C@H](CCCNC(=N)N)NC(=O)[C@H](CC(C)C)NC(=O)[C@H](CC(=O)O)NC(=O)CNC(=O)[C@H](CCCNC(=N)N)NC(=O)[C@H](CC(C)C)NC(=O)[C@@H](NC(=O)[C@H](CCC(=O)O)NC(=O)[C@@H](N)Cc1ccccc1)[C@@H](C)O)C(=O)N[C@@H](CC(C)C)C(=O)N[C@@H](CO)C(=O)N[C@H](C(=O)N[C@@H](CC(C)C)C(=O)N[C@@H](CCCNC(=N)N)C(=O)N[C@@H](Cc1c[nH]cn1)C(=O)N[C@@H](CCC(N)=O)C(=O)N[C@@H](CC(N)=O)C(=O)N[C@@H](CC(C)C)C(=O)N[C@@H](CC(C)C)C(=O)N[C@@H](CCCCN)C(=O)N[C@@H](CCC(=O)O)C(=O)N[C@@H](CC(C)C)C(=O)N[C@@H](CCC(N)=O)C(=O)N[C@@H](CC(=O)O)C(=O)O)[C@@H](C)CC` [peptide 4] (H-FETLRGDLRILSILRHQNLLKELQD-OH; N-terminus and C-terminus assumed), in data set [1], the cytotoxicity in vitro result is listed as “not cytotoxic”. Further, the “binding to cell-surface expressed αvβ6” value in data set [2] and in data set [4] was “bound cell-surface expressed αvβ6” throughout. Further, in data set [3], the half-life at 454 μg/ml was 1.3 h. Moreover, the results for the Ki at αvβ6, on αvβ8 and on αvβ5 were 1.6 ± 0.3 nM, 8.5 ± 3.7 nM and 2410 ± 1590 nM, respectively.

At α5β1, `CC(C)C[C@H](NC(=O)[C@H](CC(=O)O)NC(=O)CNC(=O)[C@H](CCCNC(=N)N)NC(=O)[C@H](CC(C)C)NC(=O)[C@H](CC(N)=O)NC(=O)[C@@H]1CCCN1C(=O)[C@@H](NC(=O)[C@H](C)NC(=O)[C@@H](N)CC(N)=O)C(C)C)C(=O)N[C@@H](CCC(N)=O)C(=O)N[C@H](C(=O)N[C@@H](CC(C)C)C(=O)N[C@@H](C)C(=O)N[C@@H](CCC(N)=O)C(=O)N[C@@H](CCCCN)C(=O)N[C@H](C(=O)N[C@@H](C)C(=O)N[C@@H](CCCNC(=N)N)C(=O)N[C@H](C(=O)O)[C@@H](C)O)C(C)C)C(C)C` [peptide 6] displayed a Ki of 2317 ± 10 nM.

The values are drawn from patent US20220402980A1, “CHROMOGRANIN A-DERIVED PEPTIDES AND USES THEREOF” (OSPEDALE SAN RAFFAELE S.R.L., priority 2019, published 2022).
